{"source": "ChEMBL document CHEMBL1135178", "about": "“Photo-oxygenation of geraniol: synthesis of a novel series of hydroxy-functionalized anti-malarial 1,2,4-trioxanes” (2002)", "key": {"Plasmodium falciparum": {"tested_on": "Plasmodium falciparum", "assay": "Antimalarial activity against Plasmodium falciparum NF54", "format": "functional"}, "Mus musculus [1]": {"tested_on": "Mus musculus", "assay": "Total number of mice protected out of the 5 tested at a dose of 96 mg/kg/day (Observation till day 10 post-infection)", "format": "functional"}, "Mus musculus [2]": {"tested_on": "Mus musculus", "assay": "The compound was tested in vivo antimalarial response against multidrug-resistant Plasmodium yoelii in Swiss mice (Mus musculus) at a dose of 96 (mg/kg/day) after 7 days", "format": "functional, organism-based"}, "Mus musculus [3]": {"tested_on": "Mus musculus", "assay": "The compound was tested in vivo antimalarial response against multidrug-resistant Plasmodium yoelii in Swiss mice (Mus musculus) at a dose of 48 (mg/kg/day) after 10 days", "format": "functional"}, "Mus musculus [4]": {"tested_on": "Mus musculus", "assay": "The compound was tested in vivo antimalarial response against multidrug-resistant Plasmodium yoelii in Swiss mice (Mus musculus) at a dose of 24 (mg/kg/day) after 4 days", "format": "functional"}, "Mus musculus [5]": {"tested_on": "Mus musculus", "assay": "The compound was tested in vivo antimalarial response against multidrug-resistant Plasmodium yoelii in Swiss mice (Mus musculus) at a dose of 24 mg/kg/day after 10 days", "format": "functional"}, "Mus musculus [6]": {"tested_on": "Mus musculus", "assay": "The compound was tested in vivo antimalarial response against multidrug-resistant Plasmodium yoelii in Swiss mice (Mus musculus) at a dose of 96 (mg/kg/day) after 4 day", "format": "functional, organism-based"}, "Mus musculus [7]": {"tested_on": "Mus musculus", "assay": "(§1) The compound was tested in vivo antimalarial response against multidrug-resistant Plasmodium yoelii in Swiss mice (Mus musculus) at a dose of 48 (mg/kg/day) after 4 day", "format": "functional, organism-based"}, "Mus musculus [8]": {"tested_on": "Mus musculus", "assay": "Total number of mice protected out of the 5 tested at a dose of 48 mg/kg/day (Observation till day 10 post-infection)", "format": "functional"}, "Mus musculus [9]": {"tested_on": "Mus musculus", "assay": "The compound was tested in vivo antimalarial response against multidrug-resistant Plasmodium yoelii in Swiss mice (Mus musculus) at a dose of 48 (mg/kg/day) after 7 days", "format": "functional"}, "Mus musculus [10]": {"tested_on": "Mus musculus", "assay": "Total number of mice protected out of the 5 tested at a dose of 24 mg/kg/day (Observation till day 10 post-infection)", "format": "functional"}, "Mus musculus [11]": {"tested_on": "Mus musculus", "assay": "The compound was tested in vivo antimalarial response against multidrug-resistant Plasmodium yoelii in Swiss mice (Mus musculus) at a dose of 24 (mg/kg/day) after 7 days", "format": "functional"}, "Mus musculus [12]": {"tested_on": "Mus musculus", "assay": "The compound was tested in vivo antimalarial response against multidrug-resistant Plasmodium yoelii in Swiss mice (Mus musculus) at a dose of 96 (mg/kg/day) after 10 days", "format": "functional, organism-based"}, "Mus musculus [13]": {"tested_on": "Mus musculus", "assay": "as §1", "format": "functional"}}}
{"molecule": "C=C(CCCO)C1COC2(CCCCC2)OO1", "note": "(stereo unspecified)", "values": [{"measurement": "MIC", "setting": "Plasmodium falciparum", "value": 1, "unit": "µg/mL"}]}
{"molecule": "C=C(C)C(O)CCC(=C)C1COC(C)(C)OO1", "note": "(stereo unspecified)", "values": [{"measurement": "MIC", "setting": "Plasmodium falciparum", "value": 0.5, "unit": "µg/mL"}]}
{"molecule": "C[C@@H]1CC[C@H]2[C@@H](C)C(=O)O[C@@H]3O[C@@]4(C)CC[C@@H]1[C@]32OO4", "note": "[ARTEMISININ]", "values": [{"measurement": "MIC", "setting": "Plasmodium falciparum", "value": 0.031, "unit": "µg/mL"}]}
{"molecule": "C=C(CCCO)C1COC2(OO1)C1CC3CC(C1)CC2C3", "note": "(stereo unspecified)", "values": [{"measurement": "MIC", "setting": "Plasmodium falciparum", "value": 0.125, "unit": "µg/mL"}]}
{"molecule": "C=C(CCCO)C1COC(C)(C)OO1", "note": "(stereo unspecified)", "values": [{"measurement": "MIC", "setting": "Plasmodium falciparum", "value": 1, "unit": "µg/mL"}]}
{"molecule": "C=C(CCCO)C1COC2(CCCC2)OO1", "note": "(stereo unspecified)", "values": [{"measurement": "MIC", "setting": "Plasmodium falciparum", "value": 0.25, "unit": "µg/mL"}]}
{"molecule": "C=C(C)C(O)CCC(=C)C1COC2(OO1)C1CC3CC(C1)CC2C3", "note": "(stereo unspecified)", "values": [{"measurement": "No. of mice protected", "setting": "Mus musculus [1]", "value": 5}, {"measurement": "Parasitemia", "setting": "Mus musculus [2]", "value": "Nil"}, {"measurement": "Parasitemia", "setting": "Mus musculus [3]", "value": 10.5, "unit": "%"}, {"measurement": "Parasitemia", "setting": "Mus musculus [4]", "value": 2.42, "unit": "%"}, {"measurement": "Parasitemia", "setting": "Mus musculus [5]", "value": 28.4, "unit": "%"}, {"measurement": "Parasitemia", "setting": "Mus musculus [6]", "value": "Nil"}, {"measurement": "Parasitemia", "setting": "Mus musculus [7]", "value": "Nil"}, {"measurement": "No. of mice protected", "setting": "Mus musculus [8]", "value": 4}, {"measurement": "Parasitemia", "setting": "Mus musculus [9]", "value": 2.04, "unit": "%"}, {"measurement": "No. of mice protected", "setting": "Mus musculus [10]", "value": 2}, {"measurement": "Parasitemia", "setting": "Mus musculus [11]", "value": 13.38, "unit": "%"}, {"measurement": "Parasitemia", "setting": "Mus musculus [12]", "value": "Nil"}, {"measurement": "MIC", "setting": "Plasmodium falciparum", "value": 0.031, "unit": "µg/mL"}]}
{"molecule": "C=C(C)C(O)CCC(=C)C1COC2(CCCC2)OO1", "note": "(stereo unspecified)", "values": [{"measurement": "MIC", "setting": "Plasmodium falciparum", "value": 0.125, "unit": "µg/mL"}]}
{"molecule": "CCN(CC)CCCC(C)Nc1ccnc2cc(Cl)ccc12", "note": "(stereo unspecified) [CHLOROQUINE]", "values": [{"measurement": "Parasitemia", "setting": "Mus musculus [13]", "value": 1.53, "unit": "%"}, {"measurement": "Parasitemia", "setting": "Mus musculus [3]", "value": 32.74, "unit": "%"}, {"measurement": "No. of mice protected", "setting": "Mus musculus [8]", "value": 3}, {"measurement": "Parasitemia", "setting": "Mus musculus [9]", "value": 17.6, "unit": "%"}, {"measurement": "MIC", "setting": "Plasmodium falciparum", "value": 0.04, "unit": "µg/mL"}]}
{"molecule": "C=C(C)C(O)CCC(=C)C1COC2(CCCCC2)OO1", "note": "(stereo unspecified)", "values": [{"measurement": "MIC", "setting": "Plasmodium falciparum", "value": 0.125, "unit": "µg/mL"}]}
